Experimental data published in patent US20100068359A1, “PRESERVATIVE METHOD” (CONOPCO, INC., D/B/A UNILEVER, priority 2008, published 2010).

Assays:
APRY yeast [1] = assay: APRY yeast challenge in YM broth with equal molar salts; type: cell-based, Zygosaccharomyces bailii and/or Zygosaccharomyces rouxii
Description: • 1. The growth media of the Bidlas et al. reference was used (YM broth and stock pH (6.0). (Growth media—YMB, Sabourda, PDB • 2. Three salts (NaCl, KCl, NH4Cl) were added in a increasing level. […] The detailed salt amounts are shown in the Table 7 below. • 3. The target pH for all compositions was 5.5. • 4. The effects on APRY Yeast, instead of pathogens as in Bidlas et al. were studied. • 5. Inhibition was measured by CFUs (colony forming units) • 6. Dramatic increases in APRY yeast levels are observed after more than about two days.

APRY yeast [2] = assay: Challenge study in full fat mayonnaise model, APRY yeast; type: cell-based, Zygosaccharomyces bailii and/or Zygosaccharomyces rouxii
From the text: • 1. […] Formula adjustments were made to keep aqueous acetic acid and sugar levels constant, i.e. % active/(% water+% active)×100, i.e., about 1.53% to about 1.54% aqueous acetic acid and about 6.32% to about 6.36% aqueous sugar. • 3. […] Analytical data supported that the per cent replacement targets were met, […] The results of the challenge study over a number of weeks were reported (see Challenge Data in the Tables 3, 4 and 5 below).

Compound | APRY yeast level in broth (APRY yeast [1]; 0.51 N salt, day 0) | APRY yeast level in broth (APRY yeast [1]; 0.51 N salt, day 1) | APRY yeast level in broth (APRY yeast [1]; 0.51 N salt, day ½) | APRY yeast level in broth (APRY yeast [1]; 1.03 N salt, day 0) | APRY yeast level in broth (APRY yeast [1]; 1.03 N salt, day 1) | APRY yeast level in broth (APRY yeast [1]; 1.03 N salt, day 1½) | APRY yeast level in broth (APRY yeast [1]; 1.03 N salt, day 2) | APRY yeast level in broth (APRY yeast [1]; 1.03 N salt, day ½) | APRY yeast level in broth (APRY yeast [1]; 1.54 N salt, day 0) | APRY yeast level in broth (APRY yeast [1]; 1.54 N salt, day 1) | APRY yeast level in broth (APRY yeast [1]; 1.54 N salt, day 1½) | APRY yeast level in broth (APRY yeast [1]; 1.54 N salt, day 2) | APRY yeast level in broth (APRY yeast [1]; 1.54 N salt, day 5) | APRY yeast level in broth (APRY yeast [1]; 1.54 N salt, day 6) | APRY yeast level in broth (APRY yeast [1]; 1.54 N salt, day ½) | APRY yeast level in broth (APRY yeast [1]; 2.05 N salt, day 0) | APRY yeast level in broth (APRY yeast [1]; 2.05 N salt, day 1) | APRY yeast level in broth (APRY yeast [1]; 2.05 N salt, day 1½) | APRY yeast level in broth (APRY yeast [1]; 2.05 N salt, day 2) | APRY yeast level in broth (APRY yeast [1]; 2.05 N salt, day ½) | further results
N.N.O=P(O)(O)O [DAP, di-ammonium hydrogen phosphate] | 17,600 CFUs | 324,000 CFUs | 8,100 CFUs | 21,000 CFUs | 10,200 CFUs | 24,000 CFUs | 250,000 CFUs | 7,100 CFUs | 6,000 CFUs | 10,300 CFUs | 2,000 CFUs | 6,700 CFUs | 120,900 CFUs | 117,600 CFUs | 13,000 CFUs | 10,000 CFUs | 11,500 CFUs | 6,000 CFUs | 7,100 CFUs | 9,600 CFUs | APRY yeast level in broth (APRY yeast [1]; 0.51 N salt, day 1½): 630,000 CFUs; APRY yeast level in broth (APRY yeast [1]; 1.54 N salt, day 8): 820,000 CFUs; APRY yeast level in broth (APRY yeast [1]; 1.54 N salt, day 11): 570,000 CFUs; APRY yeast level in broth (APRY yeast [1]; 1.54 N salt, day 13): 141,000 CFUs; APRY yeast level in broth (APRY yeast [1]; 1.54 N salt, day 14): 280,000 CFUs; APRY yeast level in broth (APRY yeast [1]; 2.05 N salt, day 5): 980 CFUs; APRY yeast level in broth (APRY yeast [1]; 2.05 N salt, day 6): 5,000 CFUs; APRY yeast level in broth (APRY yeast [1]; 2.05 N salt, day 8): 2,500 CFUs; APRY yeast level in broth (APRY yeast [1]; 2.05 N salt, day 11): 4,000 CFUs; APRY yeast level in broth (APRY yeast [1]; 2.05 N salt, day 13): 1,600 CFUs; APRY yeast level in broth (APRY yeast [1]; 2.05 N salt, day 14): 3,000 CFUs
[Cl-].[K+] [KCl, potassium chloride] | 3,800 CFUs | 280,000 CFUs | 14,200 CFUs | 12,000 CFUs | 78,000 CFUs | 772,000 CFUs | – | 12,300 CFUs | 13,800 CFUs | 11,600 CFUs | 85,000 CFUs | – | – | – | 7,900 CFUs | 7,300 CFUs | 3,300 CFUs | 8,000 CFUs | 68,000 CFUs | 7,900 CFUs | growth of APRY yeast in the broth system (APRY yeast [1]; YM broth, target pH 5.5): does not inhibit the growth of APRY yeast
Cl.N [NH4Cl, ammonium chloride] | 10,200 CFUs | 260,000 CFUs | 11,700 CFUs | 8,100 CFUs | 32,000 CFUs | 14,000 CFUs | 53,000 CFUs | 6,000 CFUs | 10,900 CFUs | 3,100 CFUs | 7,000 CFUs | 39,500 CFUs | 2,200 CFUs | 3,000 CFUs | 7,200 CFUs | 8,900 CFUs | 3,100 CFUs | 10,000 CFUs | 36,100 CFUs | 5,800 CFUs | Observation: APRY outgrowth / stability (APRY yeast [2]): faster APRY die-off; APRY yeast level in broth (APRY yeast [1]; 0.51 N salt, day 1½): 672,000 CFUs; APRY yeast level in broth (APRY yeast [1]; 1.54 N salt, day 8): 2,900 CFUs; APRY yeast level in broth (APRY yeast [1]; 1.54 N salt, day 11): 4,600 CFUs; APRY yeast level in broth (APRY yeast [1]; 1.54 N salt, day 13): 40,000 CFUs; APRY yeast level in broth (APRY yeast [1]; 1.54 N salt, day 14): 84,000 CFUs; APRY yeast level in broth (APRY yeast [1]; 2.05 N salt, day 5): 700 CFUs; APRY yeast level in broth (APRY yeast [1]; 2.05 N salt, day 6): 700 CFUs; APRY yeast level in broth (APRY yeast [1]; 2.05 N salt, day 8): 1,600 CFUs; APRY yeast level in broth (APRY yeast [1]; 2.05 N salt, day 11): 400 CFUs; APRY yeast level in broth (APRY yeast [1]; 2.05 N salt, day 13): 600 CFUs; APRY yeast level in broth (APRY yeast [1]; 2.05 N salt, day 14): 800 CFUs
[Cl-].[Na+] [NaCl, sodium chloride] | 13,100 CFUs | 440,000 CFUs | 4,300 CFUs | 10,000 CFUs | 3,200 CFUs | 7,000 CFUs | 29,000 CFUs | 6,900 CFUs | 13,200 CFUs | 2,300 CFUs | 8,000 CFUs | 3,900 CFUs | 2,740 CFUs | 1,840 CFUs | 3,800 CFUs | 9,800 CFUs | 2,700 CFUs | 7,000 CFUs | 4,500 CFUs | 5,100 CFUs | APRY yeast level in broth (APRY yeast [1]; 1.54 N salt, day 8): 3,600 CFUs; APRY yeast level in broth (APRY yeast [1]; 1.54 N salt, day 11): 3,300 CFUs; APRY yeast level in broth (APRY yeast [1]; 1.54 N salt, day 13): 2,900 CFUs; APRY yeast level in broth (APRY yeast [1]; 1.54 N salt, day 14): 3,500 CFUs; APRY yeast level in broth (APRY yeast [1]; 2.05 N salt, day 5): 1,730 CFUs; APRY yeast level in broth (APRY yeast [1]; 2.05 N salt, day 6): 2,110 CFUs; APRY yeast level in broth (APRY yeast [1]; 2.05 N salt, day 8): 1,600 CFUs; APRY yeast level in broth (APRY yeast [1]; 2.05 N salt, day 11): 700 CFUs; APRY yeast level in broth (APRY yeast [1]; 2.05 N salt, day 13): 700 CFUs; APRY yeast level in broth (APRY yeast [1]; 2.05 N salt, day 14): 800 CFUs
[Ca+2].[Cl-].[Cl-] [calcium chloride] | – | – | – | – | – | – | – | – | – | – | – | – | – | – | – | – | – | – | – | – | Z. bailii outgrowth (Z. bailii): enhance Z. bailii outgrowth
[Cl-].[Cl-].[Mg+2] [magnesium chloride] | – | – | – | – | – | – | – | – | – | – | – | – | – | – | – | – | – | – | – | – | Z. bailii outgrowth (Z. bailii): enhance Z. bailii outgrowth
